Results: patent publication US11912701B2, “Protein kinase inhibitors for promoting liver regeneration or reducing or preventing hepatocyte death” (HEPAREGENIX GMBH, priority 2018, dated 2024)

How the values were obtained:
Type in all cases: biochemical
MKK4 = biological target: T1, MKK4 (Homo sapiens, UniProt P45985); test: 33PanQinase enzyme assay, MKK4; conditions: assay 'IC50'; read-out: Potency MKK4 (IC50)
T1 construct: purchased ProQinase GmbH, Freiburg, Germany (33PanQinase Assay Service)
T1 sequence (P45985 1-399): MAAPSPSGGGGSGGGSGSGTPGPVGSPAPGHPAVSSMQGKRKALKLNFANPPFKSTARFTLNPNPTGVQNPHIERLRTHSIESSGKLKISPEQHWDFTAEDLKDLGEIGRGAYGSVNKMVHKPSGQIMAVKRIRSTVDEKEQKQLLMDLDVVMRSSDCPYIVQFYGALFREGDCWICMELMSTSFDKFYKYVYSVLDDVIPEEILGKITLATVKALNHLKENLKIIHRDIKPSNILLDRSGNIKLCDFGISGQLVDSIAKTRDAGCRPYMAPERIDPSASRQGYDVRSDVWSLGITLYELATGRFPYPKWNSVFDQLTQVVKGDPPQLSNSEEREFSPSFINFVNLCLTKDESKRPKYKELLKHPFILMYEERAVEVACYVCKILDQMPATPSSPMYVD
Method in brief: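 Radiometric 33PanQinase assay: kinase, substrate, ATP and compound in standard buffer, 60 min at 30 °C; 33Pi incorporation read by scintillation counting.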

BRaf = biological target: T2, BRaf (Homo sapiens, UniProt P15056); test: 33PanQinase enzyme assay, BRaf; conditions: ratio IC50(BRaf)/IC50(MKK4)
T2 construct: purchased ProQinase GmbH, Freiburg, Germany (33PanQinase Assay Service)
T2 sequence (P15056 whole entry, species assumed): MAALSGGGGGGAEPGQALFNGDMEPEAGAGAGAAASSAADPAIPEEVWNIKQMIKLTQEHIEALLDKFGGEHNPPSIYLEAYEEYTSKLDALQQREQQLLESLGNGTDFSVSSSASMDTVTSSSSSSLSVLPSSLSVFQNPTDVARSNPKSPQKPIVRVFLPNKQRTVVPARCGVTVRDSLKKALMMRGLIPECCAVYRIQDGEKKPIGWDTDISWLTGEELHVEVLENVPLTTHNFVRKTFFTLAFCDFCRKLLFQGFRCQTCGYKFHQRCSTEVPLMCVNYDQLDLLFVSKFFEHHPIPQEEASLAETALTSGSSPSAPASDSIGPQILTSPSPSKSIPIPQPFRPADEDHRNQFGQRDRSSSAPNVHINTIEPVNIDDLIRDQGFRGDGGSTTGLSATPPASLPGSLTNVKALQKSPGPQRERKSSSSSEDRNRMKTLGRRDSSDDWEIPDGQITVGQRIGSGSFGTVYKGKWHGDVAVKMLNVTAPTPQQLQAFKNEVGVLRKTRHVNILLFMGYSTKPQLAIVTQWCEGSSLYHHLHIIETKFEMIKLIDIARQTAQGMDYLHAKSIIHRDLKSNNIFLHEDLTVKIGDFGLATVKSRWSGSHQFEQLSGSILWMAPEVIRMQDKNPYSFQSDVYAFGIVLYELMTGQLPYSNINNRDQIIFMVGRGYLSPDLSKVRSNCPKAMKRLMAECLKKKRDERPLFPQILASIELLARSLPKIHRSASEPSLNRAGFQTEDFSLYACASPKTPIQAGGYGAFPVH
Method in brief: (§1)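 Radiometric kinase reactions with ATP, test compound in DMSO and enzyme/substrate mix were incubated 60 min at 30 °C, stopped with 2% H3PO4 and washed; incorporated 33Pi was counted by scintillation. Single-concentration data are given as % residual activity; IC50 values come from least-squares curve fits.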

MKK7 = biological target: T3, MKK7 (Homo sapiens, UniProt O14733); test: 33PanQinase enzyme assay, MKK7; design: purchased ProQinase GmbH, Freiburg, Germany (33PanQinase Assay Service); conditions: ratio IC50(MKK7)/IC50(MKK4)
T3 sequence (O14733 1-419): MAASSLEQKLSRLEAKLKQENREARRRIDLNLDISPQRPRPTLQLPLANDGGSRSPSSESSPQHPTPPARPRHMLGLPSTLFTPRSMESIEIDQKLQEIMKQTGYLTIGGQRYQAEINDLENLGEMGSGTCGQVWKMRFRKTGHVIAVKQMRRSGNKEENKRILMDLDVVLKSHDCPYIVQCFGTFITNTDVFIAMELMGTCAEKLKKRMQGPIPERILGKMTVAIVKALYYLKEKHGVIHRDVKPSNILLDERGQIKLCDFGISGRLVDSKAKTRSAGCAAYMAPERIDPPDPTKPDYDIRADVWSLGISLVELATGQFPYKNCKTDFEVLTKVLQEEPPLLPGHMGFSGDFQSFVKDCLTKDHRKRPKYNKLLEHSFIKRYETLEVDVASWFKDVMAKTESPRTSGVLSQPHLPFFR
Method in brief: as §1

JNK1 = JNK1 (Homo sapiens, UniProt P45983); test: 33PanQinase enzyme assay, JNK1; design: purchased ProQinase GmbH, Freiburg, Germany (33PanQinase Assay Service); conditions: ratio IC50(JNK1)/IC50(MKK4)
Chain of JNK1 (P45983 whole entry): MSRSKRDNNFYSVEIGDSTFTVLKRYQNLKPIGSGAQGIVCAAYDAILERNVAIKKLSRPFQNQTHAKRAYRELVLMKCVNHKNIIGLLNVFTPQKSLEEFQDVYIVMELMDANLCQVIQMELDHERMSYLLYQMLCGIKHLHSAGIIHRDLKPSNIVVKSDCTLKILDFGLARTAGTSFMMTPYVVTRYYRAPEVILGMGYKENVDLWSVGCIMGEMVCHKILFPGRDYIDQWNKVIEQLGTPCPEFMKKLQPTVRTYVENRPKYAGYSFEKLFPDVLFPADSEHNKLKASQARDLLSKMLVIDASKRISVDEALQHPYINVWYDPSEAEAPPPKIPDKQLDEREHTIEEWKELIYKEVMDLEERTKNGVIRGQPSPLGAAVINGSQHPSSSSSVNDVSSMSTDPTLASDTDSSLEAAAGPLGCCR
Method in brief: as §1

SMILES | IC50 (MKK4) | Selectivity Braf, IC50(off-target)/IC50(MKK4) (BRaf) | Selectivity IVIKK7, IC50(off-target)/IC50(MKK4) (MKK7) | Selectivity JNK1, IC50(off-target)/IC50(MKK4) (JNK1)
CCCS(=O)(=O)Nc1c(F)ccc(C(=O)c2c[nH]c3ncc(-c4cnc(C#N)nc4)cc23)c1F [Example 189, N-(3-(5-(2-cyanopyrimidin-5-yl)-1H-pyrrolo[2,3-b]pyridine-3-carbonyl)-2,6-difluorophenyl)propane-1-sulfonamide] | 0.1 to 1 µM | ++ (100 ≥ IC50(off-target)/IC50(MKK4) > 10) | +++ (IC50(off-target)/IC50(MKK4) > 100) | ++ (100 ≥ IC50(off-target)/IC50(MKK4) > 10)
CCCS(=O)(=O)Nc1c(F)ccc(C(=O)c2c[nH]c3ncc(-c4cnc(C(N)=O)nc4)cc23)c1F [Example 190, 5-(3-(2,4-difluoro-3-(propylsulfonamido)benzoyl)-1H-pyrrolo[2,3-b]pyridin-5-yl)pyrimidine-2-carboxamide] | < 0.1 µM | +++ (IC50(off-target)/IC50(MKK4) > 100) | +++ (IC50(off-target)/IC50(MKK4) > 100) | +++ (IC50(off-target)/IC50(MKK4) > 100)
CCCS(=O)(=O)Nc1c(F)ccc(C(=O)c2c[nH]c3ncc(-c4cnc(N5CCCC5)nc4)cc23)c1F [Example 191, N-(2,6-difluoro-3-(5-(2-(pyrrolidin-1-yl)pyrimidin-5-yl)-1H-pyrrolo[2,3-b]pyridine-3-carbonyl)phenyl)propane-1-sulfonamide] | 0.1 to 1 µM | +++ (IC50(off-target)/IC50(MKK4) > 100) | +++ (IC50(off-target)/IC50(MKK4) > 100) | +++ (IC50(off-target)/IC50(MKK4) > 100)
CCCS(=O)(=O)Nc1c(F)ccc(C(=O)c2c[nH]c3ncc(-c4cnc(NCCCOC)nc4)cc23)c1F [Example 192, N-(2,6-difluoro-3-(5-(2-((3-methoxypropyl)amino)pyrimidin-5-yl)-1H-pyrrolo[2,3-b]pyridine-3-carbonyl)phenyl)propane-1-sulfonamide] | 0.1 to 1 µM | +++ (IC50(off-target)/IC50(MKK4) > 100) | +++ (IC50(off-target)/IC50(MKK4) > 100) | ++ (100 ≥ IC50(off-target)/IC50(MKK4) > 10)
CCCS(=O)(=O)Nc1c(F)ccc(C(=O)c2c[nH]c3ncc(-c4cnc(C(C)C)nc4)cc23)c1F [Example 193, N-(2,6-difluoro-3-(5-(2-isopropylpyrimidin-5-yl)-1H-pyrrolo[2,3-b]pyridine-3-carbonyl)phenyl)propane-1-sulfonamide] | < 0.1 µM | ++ (100 ≥ IC50(off-target)/IC50(MKK4) > 10) | +++ (IC50(off-target)/IC50(MKK4) > 100) | +++ (IC50(off-target)/IC50(MKK4) > 100)
CCCS(=O)(=O)Nc1c(F)ccc(C(=O)c2c[nH]c3ncc(-c4cnc(N5CCN(C)CC5)nc4)cc23)c1F [Example 194, N-(2,6-difluoro-3-(5-(2-(4-methylpiperazin-1-yl)pyrimidin-5-yl)-1H-pyrrolo[2,3-b]pyridine-3-carbonyl)phenyl)propane-1-sulfonamide] | 0.1 to 1 µM | ++ (100 ≥ IC50(off-target)/IC50(MKK4) > 10) | +++ (IC50(off-target)/IC50(MKK4) > 100) | ++ (100 ≥ IC50(off-target)/IC50(MKK4) > 10)
CCCS(=O)(=O)Nc1c(F)ccc(C(=O)c2c[nH]c3ncc(-c4cnc(SC)nc4)cc23)c1F [Example 195, N-(2,6-difluoro-3-(5-(2-(methylthio)pyrimidin-5-yl)-1H-pyrrolo[2,3-b]pyridine-3-carbonyl)phenyl)propane-1-sulfonamide] | < 0.1 µM | +++ (IC50(off-target)/IC50(MKK4) > 100) | +++ (IC50(off-target)/IC50(MKK4) > 100) | +++ (IC50(off-target)/IC50(MKK4) > 100)
CCCS(=O)(=O)Nc1c(F)ccc(C(=O)c2c[nH]c3ncc(-c4cnc(C(C)(C)C)nc4)cc23)c1F [Example 196, N-(3-(5-(2-(tert-butyl)pyrimidin-5-yl)-1H-pyrrolo[2,3-b]pyridine-3-carbonyl)-2,6-difluorophenyl)propane-1-sulfonamide] | < 0.1 µM | +++ (IC50(off-target)/IC50(MKK4) > 100) | +++ (IC50(off-target)/IC50(MKK4) > 100) | +++ (IC50(off-target)/IC50(MKK4) > 100)
CCCS(=O)(=O)Nc1c(F)ccc(C(=O)c2c[nH]c3ncc(-c4cnc(SC(C)C)nc4)cc23)c1F [Example 197, N-(2,6-difluoro-3-(5-(2-(isopropylthio)pyrimidin-5-yl)-1H-pyrrolo[2,3-b]pyridine-3-carbonyl)phenyl)propane-1-sulfonamide] | 0.1 to 1 µM | +++ (IC50(off-target)/IC50(MKK4) > 100) | +++ (IC50(off-target)/IC50(MKK4) > 100) | ++ (100 ≥ IC50(off-target)/IC50(MKK4) > 10)
CCCS(=O)(=O)Nc1c(F)ccc(C(=O)c2c[nH]c3ncc(-c4cnc(N5CCN(CCO)CC5)nc4)cc23)c1F [Example 198, N-(2,6-difluoro-3-(5-(2-(4-(2-hydroxyethyl)piperazin-1-yl)pyrimidin-5-yl)-1H-pyrrolo[2,3-b]pyridine-3-carbonyl)phenyl)propane-1-sulfonamide] | 0.1 to 1 µM | ++ (100 ≥ IC50(off-target)/IC50(MKK4) > 10) | +++ (IC50(off-target)/IC50(MKK4) > 100) | ++ (100 ≥ IC50(off-target)/IC50(MKK4) > 10)
CCCS(=O)(=O)Nc1c(F)ccc(C(=O)c2c[nH]c3ncc(-c4cnc(N5CCC5)nc4)cc23)c1F [Example 199, N-(3-(5-(2-(azetidin-1-yl)pyrimidin-5-yl)-1H-pyrrolo[2,3-b]pyridine-3-carbonyl)-2,6-difluorophenyl)propane-1-sulfonamide] | < 0.1 µM | ++ (100 ≥ IC50(off-target)/IC50(MKK4) > 10) | +++ (IC50(off-target)/IC50(MKK4) > 100) | ++ (100 ≥ IC50(off-target)/IC50(MKK4) > 10)
CCCS(=O)(=O)Nc1c(F)ccc(C(=O)c2c[nH]c3ncc(-c4cnc(OCCCN(C)C)nc4)cc23)c1F [Example 200, N-(3-(5-(2-(3-(dimethylamino)propoxy)pyrimidin-5-yl)-1H-pyrrolo[2,3-b]pyridine-3-carbonyl)-2,6-difluorophenyl)propane-1-sulfonamide] | 1 to 10 µM | + (10 ≥ IC50(off-target)/IC50(MKK4) > 3) | +++ (IC50(off-target)/IC50(MKK4) > 100) | + (10 ≥ IC50(off-target)/IC50(MKK4) > 3)
CCCS(=O)(=O)Nc1c(F)ccc(C(=O)c2c[nH]c3ncc(-c4cnc(NCCO)nc4)cc23)c1F [Example 201, N-(2,6-difluoro-3-(5-(2-((2-hydroxyethyl)amino)pyrimidin-5-yl)-1H-pyrrolo[2,3-b]pyridine-3-carbonyl)phenyl)propane-1-sulfonamide] | < 0.1 µM | +++ (IC50(off-target)/IC50(MKK4) > 100) | +++ (IC50(off-target)/IC50(MKK4) > 100) | +++ (IC50(off-target)/IC50(MKK4) > 100)
